Measured values as given in patent US20030134901A1, “Lipoxin compounds and their use in treating cell proliferative disorders” (priority 1993, published 2003).

What was measured:
[1] = test system: Intact neutrophils from peripheral blood; test: LXA4 metabolism by intact neutrophils; type: in vitro ADME, human; conditions: intact neutrophils of healthy donors
Procedure: Human PMN were obtained from healthy volunteers by gradient centrifugation of heparinized fresh venous blood (Böyum, A. ([…]) Scand. J. Clin. Lab. Invest. 21:77). HL-60 cells were seeded in RPMI supplemented with penicillin (100 U/ml), streptomycin (100 μ/ml), fetal bovine serum (10%) (Hyclone, Logan, Utah) and incubated (37° C. with 5% CO2 atmosphere) in plastic 250 ml flasks. Individual flasks containing […] HL-60 cells/ml were incubated in the presence or absence of phorbol 12-myristate 13-acetate (PMA) (10 or 16 nM, 24-27 h) and adherence was monitored for induction of macrophage-like phenotype as in Collins, S. J. (1987) Blood 70:1233. […]
Incubations with eicosanoids were stopped with cold methanol containing either PGB2 or 5-HETE as internal standards (5-HETE was used when 15-oxo-ETE was quantified). […] Formation of 15-oxo-ETE by 100,000 g supernatants (cf. Agins, A. P. et al. (1987) Agents Actions 21:397; Xun, C-Q. et al.(1991) Biochem. J. 279:553; and Sok, D-E. et al. (1988) Biochem. Biophys. Res. Commun. 156:524) was quantified after RP-HPLC using an ODS column (4.6 mm×25 cm) eluted with methanol/H2O/acetic acid (70:30:0.01, v/v/v) monitored at 280 nm with a flow rate of 1 ml/min. […] On-line spectra were recorded using a diode array detector (Hewlett-Packard 1040M series II) equipped with HPLC^3D ChemStation software (DOS series). […]

[2] = test system: PLD activity in human PMN; test: PLD activity (PEt formation) in PMN; type: cell-based; conditions: biphasic concentration dependence
Procedure: PMN, platelet and RBC isolation from peripheral blood. Human PMN were obtained by the modified Böyum method (Böyum, A. (1968) Scan. J. Clin. Lab. Invest. 21:77) from fresh heparinized blood after venipuncture of healthy normal volunteers. Suspensions in PBS were monitored for cell number and viability by their ability to exclude trypan blue both exceeding 98%. Red blood cells were obtained from 10 ml of heparinized blood after three centrifugations in PBS (2,500 rpm, 10 min at 21° C.). Blood drawn in acidic citrate dextrose (9:1, v/v) was used to isolate platelets as previously described (Serhan, C. N. and Sheppard, K.-A. (1990) J. Clin. Invest. 85:772). PLD activity. Human PMN and HL-60 cells (50×10^6 cells/ml) prepared as above were incubated with ^3H-myristic acid or ^3H-palmitic acid (8 μCi/50×10^6 cells) for 40-60 min at 37° C. in PBS. […] Incubations were carried out at 37° C. (10 ×10^6 cells/ml PBS). […] M. et al. (1989) J. Biol. Chem. 264:17069. At indicated times, incubations were stopped by adding 3.5 ml of ice cold CHCl3/MeOH (2/5, v/v) containing 1-^14C-arachidonic acid (5,000 cpm) used here as internal standard to quantitate extraction recoveries. Samples were extracted using a modified Bligh and Dyer extraction as in (Serhan, C. N. and Sheppard, K. -A. (1990) J. Clin. Invest. 85:772). Organic phases, concentrated in 50 μL of CHCl3/MeOH (8/2, v/v), were spotted onto linear […] TLC plates developed with the organic phase of ethyl acetate[…][…] (110/50/20/100, v/v/v/v) for 50 min ([…]. et al.(1989) J. Biol. Chem. 264:17069). […] Regions corresponding to PA, PEt, and internal standards were scraped and quantified by liquid scintillation counting. […] In these experiments, PA was resolved using ethyl acetate[…][…]) as solvent system ([…]. et al. (1989) Anal. […] Impact of IAP and staurosporine on LXA4-induced PLD activity. PLD activity assays, performed as described (vide supra), were preceded by cell exposure to either IAP or staurosporine. […]

## CCCCC[C@H](O)/C=C/C=C\C=C\C=C\[C@@H](O)[C@@H](O)CCCC(=O)O [LXA4, (5S, 6R, 15S)-trihydroxy-7E, 9E, 11Z, 13E-eicosatetraenoic acid]
[1]
  metabolism of exogenous LXA4: did not significantly metabolize
[2]
  concentration of second peak of activity, PEt formation: 10^−7 M
